Here are results for seven sequences from patent publication US8338582B2, “Anti-HIV immunogens and methods for inducing an immune response” (Fundacao de Amparo a Pesquisa do Estado de Sao Paulo, priority 2005, dated 2012).

This assay concerns peripheral blood mononuclear cells from HIV-1 seronegative individuals. The note with it: for IFN-γ spots/10^6 PBMC, Average (AV): average of 8 seronegative individuals; for IFN-γ spots/10^6 PBMC, Average (AV) / IFN-γ spots/10^6 PBMC: peptide 5 μM; for IFN-γ spots/10^6 PBMC, AV + 3SD: average plus 3 standard deviations, 8 seronegative individuals. How it is done:
Step d) is achieved by synthesizing the peptides representing the epitopes of the present invention, followed by ELISPOT assay to detect IFN-γ-producing cells. For the purposes of the present invention, the positivity cutoff value used is ≧30 SFC IFN-γ/10^6 PBMC, calculated based on the levels of responses of HIV-1 seronegative patients
Synthetic peptide stocks were diluted to 25 mg/mL in dimethylsulphoxide, followed by ELISPOT assays for detection of IFN-γ-producing cells in response to the epitopes using peripheral blood mononuclear cells (PBMC) in 34 HIV-1+ patients of several clinical groups, long-term nonprogressors (LTNP), reconsituted, partial controllers, and progressors. Each epitope was tested in a concentration of 5 μM. The cryopreserved cells were maintained in culture for 16 hours, placed on plates in the presence of the epitopes, incubated for a further 18 hours, washed and ELISPOT plates were developed for the identification of spot-forming cells/Interferon-γ-producing cells (IFN-γ SFC), which were then counted in an automated counter (Zeiss KS ELISpot/Axioplan 2).

Where two headings read alike, the source gives them in different places.

Consider EAIIRILQQLLFIHF [vpr 2], for which the “IFN-γ spots/10^6 PBMC, Average (AV)” value is listed as 4.6 spots/10^6 PBMC and the “IFN-γ spots/10^6 PBMC, AV + 3SD” value turned out to be 24.2 spots/10^6 PBMC. Moreover, the “IFN-γ spots/10^6 PBMC” value (seronegative individual C#01) is given as 0 spots/10^6 PBMC. Also, the “IFN-γ spots/10^6 PBMC” value (seronegative individual C#02) was 12 spots/10^6 PBMC. For the same sequence, the “IFN-γ spots/10^6 PBMC” value (seronegative individual C#03) is on record as 15 spots/10^6 PBMC. Further, under “seronegative individual C#04”, the “IFN-γ spots/10^6 PBMC” value came to 0 spots/10^6 PBMC. In addition, the “IFN-γ spots/10^6 PBMC” value (seronegative individual C#05) amounted to 0 spots/10^6 PBMC. The “IFN-γ spots/10^6 PBMC” value (seronegative individual C#06) was 0 spots/10^6 PBMC. Also, the “IFN-γ spots/10^6 PBMC” value (seronegative individual C#07) worked out at 0 spots/10^6 PBMC. Moreover, for the setting “seronegative individual C#08”, the “IFN-γ spots/10^6 PBMC” value is 10 spots/10^6 PBMC.

Regarding SLQYLALVALVAPKK [vif 2], the “IFN-γ spots/10^6 PBMC, Average (AV)” value was 3.1 spots/10^6 PBMC and the “IFN-γ spots/10^6 PBMC, AV + 3SD” value was determined as 19.7 spots/10^6 PBMC. Further, where the note is “seronegative individual C#01”, the “IFN-γ spots/10^6 PBMC” value is reported as 0 spots/10^6 PBMC. Where the note is “seronegative individual C#02”, the “IFN-γ spots/10^6 PBMC” value came out at 8 spots/10^6 PBMC. Moreover, the “IFN-γ spots/10^6 PBMC” value (seronegative individual C#03) turned out to be 2 spots/10^6 PBMC. Also, under “seronegative individual C#04”, the “IFN-γ spots/10^6 PBMC” value is listed as 0 spots/10^6 PBMC. Moreover, the “IFN-γ spots/10^6 PBMC” value (seronegative individual C#05) amounted to 0 spots/10^6 PBMC. In addition, the “IFN-γ spots/10^6 PBMC” value (seronegative individual C#06) came to 0 spots/10^6 PBMC. The “IFN-γ spots/10^6 PBMC” value (seronegative individual C#07) amounted to 0 spots/10^6 PBMC. Further, for the setting “seronegative individual C#08”, the “IFN-γ spots/10^6 PBMC” value is 15 spots/10^6 PBMC.

Regarding EELRSLYNTVATLYCVH [gag 1], the “IFN-γ spots/10^6 PBMC, Average (AV)” value was found to be 1.7 spots/10^6 PBMC and the “IFN-γ spots/10^6 PBMC, AV + 3SD” value turned out to be 10.0 spots/10^6 PBMC. Besides, for the setting “seronegative individual C#01”, the “IFN-γ spots/10^6 PBMC” value is 0 spots/10^6 PBMC. Moreover, the “IFN-γ spots/10^6 PBMC” value (seronegative individual C#02) amounted to 7 spots/10^6 PBMC. The “IFN-γ spots/10^6 PBMC” value (seronegative individual C#03) is 0 spots/10^6 PBMC. In addition, where the note is “seronegative individual C#04”, the “IFN-γ spots/10^6 PBMC” value stood at 2 spots/10^6 PBMC. Besides, the “IFN-γ spots/10^6 PBMC” value (seronegative individual C#05) is listed as 0 spots/10^6 PBMC. The “IFN-γ spots/10^6 PBMC” value (seronegative individual C#06) is on record as 0 spots/10^6 PBMC. Moreover, the “IFN-γ spots/10^6 PBMC” value (seronegative individual C#07) stood at 0 spots/10^6 PBMC. Moreover, the “IFN-γ spots/10^6 PBMC” value (seronegative individual C#08) came to 5 spots/10^6 PBMC.

Regarding KRWIILGLNKIVRMYSPTSI [gag 3], the “IFN-γ spots/10^6 PBMC, Average (AV)” value is given as 3.6 spots/10^6 PBMC and the “IFN-γ spots/10^6 PBMC, AV + 3SD” value came to 20 spots/10^6 PBMC. Moreover, the “IFN-γ spots/10^6 PBMC” value (seronegative individual C#01) is on record as 0 spots/10^6 PBMC. Further, where the note is “seronegative individual C#02”, the “IFN-γ spots/10^6 PBMC” value worked out at 12 spots/10^6 PBMC. Moreover, the “IFN-γ spots/10^6 PBMC” value (seronegative individual C#03) was 5 spots/10^6 PBMC. Further, the “IFN-γ spots/10^6 PBMC” value (seronegative individual C#04) is reported as 12 spots/10^6 PBMC. Under “seronegative individual C#05”, the “IFN-γ spots/10^6 PBMC” value amounted to 0 spots/10^6 PBMC. For the same sequence, the “IFN-γ spots/10^6 PBMC” value (seronegative individual C#06) is 0 spots/10^6 PBMC. Besides, the “IFN-γ spots/10^6 PBMC” value (seronegative individual C#07) was 0 spots/10^6 PBMC. The “IFN-γ spots/10^6 PBMC” value (seronegative individual C#08) was found to be 0 spots/10^6 PBMC.

Turning to ELLKTVRLIKFLYQSNP [rev 1], the “IFN-γ spots/10^6 PBMC, Average (AV)” value stood at 3 spots/10^6 PBMC and the “IFN-γ spots/10^6 PBMC, AV + 3SD” value is on record as 12.9 spots/10^6 PBMC. The “IFN-γ spots/10^6 PBMC” value (seronegative individual C#01) worked out at 5 spots/10^6 PBMC. Moreover, the “IFN-γ spots/10^6 PBMC” value (seronegative individual C#02) is listed as 7 spots/10^6 PBMC. The “IFN-γ spots/10^6 PBMC” value (seronegative individual C#03) is 5 spots/10^6 PBMC. Besides, where the note is “seronegative individual C#04”, the “IFN-γ spots/10^6 PBMC” value is given as 7 spots/10^6 PBMC. Moreover, the “IFN-γ spots/10^6 PBMC” value (seronegative individual C#05) came to 0 spots/10^6 PBMC. Moreover, under “seronegative individual C#06”, the “IFN-γ spots/10^6 PBMC” value is given as 0 spots/10^6 PBMC. Further, the “IFN-γ spots/10^6 PBMC” value (seronegative individual C#07) was found to be 0 spots/10^6 PBMC. For the same sequence, the “IFN-γ spots/10^6 PBMC” value (seronegative individual C#08) was determined as 0 spots/10^6 PBMC.

In the case of VLAIVALVVATIIAI [vpu 1], the “IFN-γ spots/10^6 PBMC, Average (AV)” value is recorded as 3.7 spots/10^6 PBMC and the “IFN-γ spots/10^6 PBMC, AV + 3SD” value stood at 16.2 spots/10^6 PBMC. Further, the “IFN-γ spots/10^6 PBMC” value (seronegative individual C#01) was determined as 0 spots/10^6 PBMC. Also, the “IFN-γ spots/10^6 PBMC” value (seronegative individual C#02) was determined as 0 spots/10^6 PBMC. Besides, for the setting “seronegative individual C#03”, the “IFN-γ spots/10^6 PBMC” value is reported as 7 spots/10^6 PBMC. Besides, the “IFN-γ spots/10^6 PBMC” value (seronegative individual C#04) came out at 7 spots/10^6 PBMC. The “IFN-γ spots/10^6 PBMC” value (seronegative individual C#05) stood at 0 spots/10^6 PBMC. The “IFN-γ spots/10^6 PBMC” value (seronegative individual C#06) is given as 0 spots/10^6 PBMC. Further, the “IFN-γ spots/10^6 PBMC” value (seronegative individual C#07) was 6 spots/10^6 PBMC. For the same sequence, the “IFN-γ spots/10^6 PBMC” value (seronegative individual C#08) is 10 spots/10^6 PBMC.

On to QQLLFIHFRIGCRHSRIG [vpr 3], for which the “IFN-γ spots/10^6 PBMC, Average (AV)” value was 1.9 spots/10^6 PBMC and the “IFN-γ spots/10^6 PBMC, AV + 3SD” value is 12.3 spots/10^6 PBMC. Further, the “IFN-γ spots/10^6 PBMC” value (seronegative individual C#01) is reported as 0 spots/10^6 PBMC. In addition, the “IFN-γ spots/10^6 PBMC” value (seronegative individual C#02) came out at 8 spots/10^6 PBMC. Moreover, where the note is “seronegative individual C#03”, the “IFN-γ spots/10^6 PBMC” value turned out to be 7 spots/10^6 PBMC. For the same sequence, under “seronegative individual C#04”, the “IFN-γ spots/10^6 PBMC” value amounted to 0 spots/10^6 PBMC. For the same sequence, the “IFN-γ spots/10^6 PBMC” value (seronegative individual C#05) was 0 spots/10^6 PBMC. The “IFN-γ spots/10^6 PBMC” value (seronegative individual C#06) amounted to 0 spots/10^6 PBMC. Where the note is “seronegative individual C#07”, the “IFN-γ spots/10^6 PBMC” value was found to be 0 spots/10^6 PBMC. Also, the “IFN-γ spots/10^6 PBMC” value (seronegative individual C#08) worked out at 0 spots/10^6 PBMC.
